Key:
M1R(1.18H4) = target: T1, M1R(1.18H4) (Homo sapiens, UniProt P11229); format: cell-based; details: CHO cells, 1 μM Ni–NTA
T1 sequence (P11229 1-460): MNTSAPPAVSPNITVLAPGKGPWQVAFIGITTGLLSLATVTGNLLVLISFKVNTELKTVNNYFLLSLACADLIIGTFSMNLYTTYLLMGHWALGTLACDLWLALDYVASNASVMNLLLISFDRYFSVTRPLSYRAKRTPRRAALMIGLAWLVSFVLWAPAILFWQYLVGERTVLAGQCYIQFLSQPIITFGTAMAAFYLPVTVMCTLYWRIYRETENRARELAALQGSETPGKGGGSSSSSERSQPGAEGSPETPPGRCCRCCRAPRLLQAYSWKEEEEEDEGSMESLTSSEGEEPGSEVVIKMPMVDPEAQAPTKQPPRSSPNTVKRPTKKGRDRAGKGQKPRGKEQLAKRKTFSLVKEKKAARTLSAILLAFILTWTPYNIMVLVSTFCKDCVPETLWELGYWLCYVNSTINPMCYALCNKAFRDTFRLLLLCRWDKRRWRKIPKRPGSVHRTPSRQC

β2AR(1.19H4) = β2AR(1.19H4) (Homo sapiens, UniProt P07550, INS20HHHH); experiment: Fluorescence Ca2+ imaging; format: cell-based; details: 1 µM MAC(β2AR, O4), 5 µM U73122

Row | MAC(β2AR, O4)-induced Ca2+ response in presence of PLC inhibitor (β2AR(1.19H4)) | Structure (SMILES) | concentration–response on addition of Ni–NTA (M1R(1.18H4))
1 |  | C[N+](C)(C)CC#CCOC1=NOCC1 [iperoxo] | unaffected
2 | no response was detected | COc1ccc2c(c1)CC[C@@H]1[C@@H]2CC[C@]2(C)[C@@H](NCCCCCCN3C(=O)C=CC3=O)CC[C@@H]12 [U73122] | 

Reference: article PMC6161059 (ACS Central Science, 2018)
